Source: PubChem BioAssay (NCI)
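In this assay, cells in 96-well plates receive the compound at five concentrations for 48 hours. Endpoints are linearly interpolated between the surrounding concentrations. GI50 = concentration required for 50% inhibition of growth. Definition used: TGI = concentration required for complete inhibition of growth.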

Experiments:
Test in all cases: DTP human tumour cell line panel, 48 h
[1] = system: 786-0 renal
[2] = system: A498 renal
[3] = system: A549 NSCLC
[4] = system: ACHN renal
[5] = system: CAKI-1 renal
[6] = system: CCRF-CEM leukemia
[7] = system: COLO 205 colon
[8] = system: DLD-1 colon
[9] = system: DMS 273 small cell lung
[10] = system: EKVX NSCLC
[11] = system: HCT-116 colon
[12] = system: HCT-15 colon
[13] = system: HL-60(TB) leukemia
[14] = system: HOP-18 NSCLC
[15] = system: HOP-92 NSCLC
[16] = system: HT29 colon
[17] = system: IGROV1 ovarian
[18] = system: K-562 leukemia
[19] = system: KM20L2 colon
[20] = system: LOX IMVI melanoma
[21] = system: LXFL 529 NSCLC
[22] = system: M14 melanoma
[23] = system: MOLT-4 leukemia
[24] = system: NCI-H23 lung
[25] = system: NCI-H460 lung
[26] = system: NCI-H522 lung
[27] = system: OVCAR-8 ovarian
[28] = system: RPMI-8226 leukemia
[29] = system: RXF 393 renal
[30] = system: SF-268 CNS
[31] = system: SF-295 CNS
[32] = system: SF-539 CNS
[33] = system: SK-MEL-28 melanoma
[34] = system: SK-MEL-5 melanoma
[35] = system: SK-OV-3 ovarian
[36] = system: SN12C renal
[37] = system: SNB-19 CNS
[38] = system: SW-620 colon
[39] = system: TK-10 renal
[40] = system: U251 CNS
[41] = system: UACC-62 melanoma
[42] = system: UO-31 renal
[43] = system: DMS 114 small cell lung
[44] = system: HCC-2998 colon
[45] = system: HOP-62 NSCLC
[46] = system: KM12 colon
[47] = system: M19-MEL melanoma
[48] = system: MALME-3M melanoma
[49] = system: NCI-H226 lung
[50] = system: OVCAR-3 ovarian
[51] = system: OVCAR-4 ovarian
[52] = system: OVCAR-5 ovarian
[53] = system: SK-MEL-2 melanoma
[54] = system: SNB-75 CNS
[55] = system: SNB-78 CNS
[56] = system: UACC-257 melanoma
[57] = system: XF 498 CNS

In the case of `C1C[OH+]CC[OH+]CCNCC[OH+]CC[OH+]CCN1.Cl.[Cl-].[Pt+4]`, the GI50 [1] is reported as greater than 100 µM, the TGI [1] is reported as greater than 100 µM and the GI50 [2] is reported as greater than 100 µM. For the same compound, the TGI [2] was greater than 100 µM, the GI50 [3] was greater than 100 µM and the TGI [3] was greater than 100 µM. The GI50 [4] was greater than 100 µM, the TGI [4] was greater than 100 µM and the GI50 [5] was greater than 100 µM. For the same compound, the TGI [5] was greater than 100 µM, the GI50 [6] was greater than 100 µM and the TGI [6] was greater than 100 µM. The GI50 [7] was greater than 100 µM, the TGI [7] was greater than 100 µM and the GI50 [8] was greater than 100 µM. It also gave a TGI [8] greater than 100 µM, a GI50 [9] greater than 100 µM and a TGI [9] greater than 100 µM. It also gave a GI50 [10] greater than 100 µM, a TGI [10] greater than 100 µM and a GI50 [11] greater than 100 µM. The TGI [11] was greater than 100 µM, the GI50 [12] was greater than 100 µM and the TGI [12] was greater than 100 µM. For the same compound, the GI50 [13] was greater than 100 µM, the TGI [13] was greater than 100 µM and the GI50 [14] was greater than 100 µM. For the same compound, the TGI [14] was greater than 100 µM, the GI50 [15] was greater than 100 µM and the TGI [15] was greater than 100 µM. It also gave a GI50 [16] greater than 100 µM, a TGI [16] greater than 100 µM and a GI50 [17] greater than 100 µM. It also gave a TGI [17] greater than 100 µM, a GI50 [18] greater than 100 µM and a TGI [18] greater than 100 µM. It also gave a GI50 [19] greater than 100 µM, a TGI [19] greater than 100 µM and a GI50 [20] greater than 100 µM. The TGI [20] was greater than 100 µM, the GI50 [21] was greater than 100 µM and the TGI [21] was greater than 100 µM. The GI50 [22] was greater than 100 µM, the TGI [22] was greater than 100 µM and the GI50 [23] was greater than 100 µM. For the same compound, the TGI [23] was greater than 100 µM, the GI50 [24] was 5.27 µM and the TGI [24] was 25 µM. It also gave a GI50 [25] greater than 100 µM, a TGI [25] greater than 100 µM and a GI50 [26] of 2.27 µM. For the same compound, the TGI [26] was 6.47 µM, the GI50 [27] was greater than 100 µM and the TGI [27] was greater than 100 µM. It also gave a GI50 [28] greater than 100 µM, a TGI [28] greater than 100 µM and a GI50 [29] of 1.66 µM. For the same compound, the TGI [29] was 4.13 µM, the GI50 [30] was greater than 100 µM and the TGI [30] was greater than 100 µM. It also gave a GI50 [31] greater than 100 µM, a TGI [31] greater than 100 µM and a GI50 [32] greater than 100 µM. For the same compound, the TGI [32] was greater than 100 µM, the GI50 [33] was greater than 100 µM and the TGI [33] was greater than 100 µM. It also gave a GI50 [34] greater than 100 µM, a TGI [34] greater than 100 µM and a GI50 [35] greater than 100 µM. The TGI [35] was greater than 100 µM, the GI50 [36] was greater than 100 µM and the TGI [36] was greater than 100 µM. It also gave a GI50 [37] greater than 100 µM, a TGI [37] greater than 100 µM and a GI50 [38] greater than 100 µM. For the same compound, the TGI [38] was greater than 100 µM, the GI50 [39] was greater than 100 µM and the TGI [39] was greater than 100 µM. For the same compound, the GI50 [40] was greater than 100 µM, the TGI [40] was greater than 100 µM and the GI50 [41] was greater than 100 µM. For the same compound, the TGI [41] was greater than 100 µM, the GI50 [42] was greater than 100 µM and the TGI [42] was greater than 100 µM.

Compound `O=c1c2c(c1=O)-c1ccccc1CN2` has a TGI [1] greater than 100 µM, a TGI [2] greater than 100 µM and a TGI [3] greater than 100 µM. For the same compound, the TGI [4] was greater than 100 µM, the TGI [5] was greater than 100 µM and the TGI [6] was greater than 100 µM. The TGI [7] was greater than 100 µM, the TGI [8] was greater than 100 µM and the TGI [43] was greater than 100 µM. The TGI [9] was greater than 100 µM, the TGI [10] was greater than 100 µM and the TGI [44] was greater than 100 µM. For the same compound, the TGI [11] was greater than 100 µM, the TGI [12] was greater than 100 µM and the TGI [13] was greater than 100 µM. It also gave a TGI [45] greater than 100 µM, a TGI [15] greater than 100 µM and a TGI [16] greater than 100 µM. The TGI [17] was greater than 100 µM, the TGI [18] was greater than 100 µM and the TGI [46] was greater than 100 µM. The TGI [19] was greater than 100 µM, the TGI [20] was greater than 100 µM and the TGI [21] was greater than 100 µM. The TGI [22] was greater than 100 µM, the TGI [47] was greater than 100 µM and the TGI [48] was greater than 100 µM. The TGI [23] was greater than 100 µM, the TGI [49] was greater than 100 µM and the TGI [24] was greater than 100 µM. For the same compound, the TGI [25] was greater than 100 µM, the TGI [26] was greater than 100 µM and the TGI [50] was greater than 100 µM. It also gave a TGI [51] greater than 100 µM, a TGI [52] greater than 100 µM and a TGI [27] greater than 100 µM. It also gave a TGI [28] greater than 100 µM, a TGI [29] greater than 100 µM and a TGI [30] greater than 100 µM. For the same compound, the TGI [32] was greater than 100 µM, the TGI [53] was greater than 100 µM and the TGI [33] was greater than 100 µM. It also gave a TGI [34] greater than 100 µM, a TGI [35] greater than 100 µM and a TGI [36] greater than 100 µM. The TGI [37] was greater than 100 µM, the TGI [54] was greater than 100 µM and the TGI [55] was greater than 100 µM. For the same compound, the TGI [38] was greater than 100 µM, the TGI [39] was greater than 100 µM and the TGI [40] was greater than 100 µM. For the same compound, the TGI [56] was greater than 100 µM, the TGI [41] was greater than 100 µM and the TGI [42] was greater than 100 µM. The TGI [57] was greater than 100 µM.
